According to paper PMC8741257, “Identification of novel non-toxic and anti-angiogenic α-fluorinated chalcones as potent colchicine binding site inhibitors” (Journal of Enzyme Inhibition and Medicinal Chemistry, 2022):
Like-named read-outs stand apart in the source and are kept apart here.

Columns and labels:
[1] = system: A549 (human non-small cell lung cancer); assay: Antiproliferative activity (SRB assay); assay type: cell-based; conditions: mean ± SD, three separated experiments, 72 h
Description: (§1) MCF-7, MGC-803, Hela and HepG-2 cell lines were cultured in a base medium (90% DMEM and 10% FBS), A549 and U937 were cultured in a base medium (90% PRMI-1640 and 10% FBS) at 37 °C, 5% CO2 and a saturated humidity atmosphere. All the mediums were supplemented with 10% FBS and 1% […]/streptomycin (all cells were purchased from Shanghai Institutes for Biological Sciences, Chinese Academy of Sciences, Shanghai, China).
(§2) A549, MGC-803, MCF-7, HepG2 and Hela cells were seeded at the appropriate cell line density (3 × 10^3 to 4 × 10^3 cells/well). The cells were then incubated at 37 °C for 24 h in a humidified 5%CO2 in 96-well plates prior to experiments. After a further 72 h of incubation, cell proliferation was quantified with SRB ([…]) to determine the number of surviving cells. The absorbance at 560 nm was measured by microplate. The experiment was repeated three times, and the data were listed in the form of mean and standard deviation.

[2] = system: Hela (human cervical cancer cells); assay: Antiproliferative activity (SRB assay); assay type: cell-based; conditions: mean ± SD, three separated experiments, 72 h
Description: as §1, §2

[3] = system: HepG2 (human liver cancer cells); assay: Antiproliferative activity (SRB assay); assay type: cell-based; conditions: mean ± SD, three separated experiments, 72 h
Description: as §1, §2

[4] = system: MCF-7 (human breast cancer cells); assay: Antiproliferative activity (SRB assay); assay type: cell-based; conditions: MCF7, mean ± SD, three separated experiments, 72 h
Description: as §1, §2

[5] = system: U937 (human leukaemia cells); assay: Antiproliferative activity (CCK-8 assay); assay type: cell-based; conditions: U-937, mean ± SD, three separated experiments, 72 h
Description: as §1
(§3) MGC-803 cells were collected and seeded into 96 well plates at a density of 8000/well. The mediums containing drugs and cell suspension were added into the well. The cells were incubated in 5% CO2 incubator at 37 °C for 72 h. Each well was added 10 µL CCK8 solution, and the incubation time was 3–4 h. The absorbance value at 450 nm was measured by microplate reader. Data are calculated with GraphPad Prism5 software.

[6] = system: MGC-803 (human gastric cancer cells); assay: Antiproliferative activity (SRB / CCK-8 assay); assay type: cell-based; conditions: mean ± SD, three separated experiments, 72 h
Description: as §1, §2, §3

[7] = system: six human cancer cell lines (MCF-7, MGC-803, HepG2, Hela, A549, U937); assay: Antiproliferative activity, summary over the tested cancer cell lines; assay type: cell-based
Description: as §2, §3

SMILES	IC50 [1] [µM]	IC50 [2] [µM]	IC50 [3] [µM]	IC50 [4] [µM]	IC50 [5] [µM]	IC50 [6] [µM]	IC50 ([7]; tested cancer cell lines, read-out: IC50, anti-proliferative activity) [µM]	melting point [°C]	IC50 ([7]; several tested cancer cell lines, range, read-out: IC50, inhibitory effect) [µM]
COC(=O)c1cccc2[nH]cc(/C=C(\F)C(=O)c3cc(OC)c(OC)c(OC)c3)c12 [4f, Methyl(Z)-3–(2-fluoro-3-oxo-3–(3,4,5-trimethoxyphenyl)prop-1-en-1-yl)-1H-indole-4-carboxylate]	> 5	> 5	> 5	> 5	> 5	> 5	> 5	118 to 119	–
COc1cc(C(=O)/C(F)=C/c2c(-c3ccccc3)[nH]c3ccccc23)cc(OC)c1OC [4b, (Z)-2-fluoro-3–(2-phenyl-1H-indol-3-yl)-1–(3,4,5-trimethoxyphenyl)prop-2-en-1-one]	3.635 ± 0.001	0.685 ± 0.002	0.883 ± 0.041	0.551 ± 0.022	0.562 ± 0.02	0.202 ± 0.023	–	150.7 to 152.4	–
COc1cc(C(=O)/C(F)=C/c2cc3ccccc3s2)cc(OC)c1OC [4h, (Z)-3-(benzo[b]thiophen-2-yl)-2-fluoro-1–(3,4,5-trimethoxyphenyl)prop-2-en-1-one]	2.57 ± 0.159	2.493 ± 0.002	5.976 ± 0.004	2.101 ± 0.003	0.606 ± 0.026	1.897 ± 0.001	–	122.2 to 123.6	–
COc1cc(C(=O)/C(F)=C/c2nc3ccccc3[nH]2)cc(OC)c1OC [4j, (Z)-3-(1H-benzo[d]imidazol-2-yl)-2-fluoro-1–(3,4,5-trimethoxyphenyl)prop-2-en-1-one]	> 5	> 5	> 5	> 5	> 5	> 5	–	178.9 to 180.9	–
COc1cc(C(=O)/C(F)=C/c2oc3ccccc3c2C)cc(OC)c1OC [4p, (Z)-2-fluoro-3–(3-methylbenzofuran-2-yl)-1–(3,4,5-trimethoxyphenyl)prop-2-en-1-one]	> 5	> 5	> 5	> 5	> 5	> 5	–	117.4 to 118.8	–
COc1cc(C(=O)/C(F)=C/c2ccc3occc3c2)cc(OC)c1OC [4m, (Z)-3-(benzofuran-5-yl)-2-fluoro-1–(3,4,5-trimethoxyphenyl)prop-2-en-1-one]	> 5	0.925 ± 0.007	1.407 ± 0.014	1.002 ± 0.007	0.71 ± 0.027	0.362 ± 0.123	–	94.1 to 94.2	–
COc1cc(C(=O)/C(F)=C/c2cc3ccccc3o2)cc(OC)c1OC [4o, (Z)-3-(benzofuran-2-yl)-2-fluoro-1–(3,4,5-trimethoxyphenyl)prop-2-en-1-one]	> 5	> 5	> 5	4.408 ± 0.043	> 5	3.301 ± 0.026	–	115.5 to 116.6	–
COc1cc(C(=O)/C(F)=C/c2csc3ccccc23)cc(OC)c1OC [4g, (Z)-3-(benzo[b]thiophen-3-yl)-2-fluoro-1–(3,4,5-trimethoxyphenyl)prop-2-en-1-one]	0.505 ± 0.01	0.072 ± 0.001	0.199 ± 0.006	0.121 ± 0.012	0.456 ± 0.013	0.021 ± 0.007	–	118 to 119	–
COc1cc(C(=O)/C(F)=C/c2ccc3sc4ccccc4c3c2)cc(OC)c1OC [4s, (Z)-3-(dibenzo[b, d]thiophen-2-yl)-2-fluoro-1–(3,4,5-trimethoxyphenyl)prop-2-en-1-one]	> 5	> 5	> 5	> 5	> 5	> 5	–	142.6 to 143.8	–
COc1cc(C(=O)/C(F)=C/c2sc3ccccc3c2C)cc(OC)c1OC [4i, (Z)-2-fluoro-3–(3-methylbenzo[b]thiophen-2-yl)-1–(3,4,5-trimethoxyphenyl)prop-2-en-1-one]	> 5	> 5	> 5	> 5	> 5	> 5	–	140.5 to 143.4	–
COc1cc(C(=O)/C(F)=C/c2cccc3c2OCO3)cc(OC)c1OC [4k, (Z)-3-(benzo[d][1,3]dioxol-4-yl)-2-fluoro-1–(3,4,5-trimethoxyphenyl)prop-2-en-1-one]	> 5	0.565 ± 0.012	3.298 ± 0.007	0.441 ± 0.001	0.806 ± 0.024	0.166 ± 0.004	–	148.1 to 149.1	–
COc1cc(C(=O)/C(F)=C/c2ccc3c(c2)CCO3)cc(OC)c1OC [4n, (Z)-3–(2,3-dihydrobenzofuran-5-yl)-2-fluoro-1–(3,4,5-trimethoxyphenyl)prop-2-en-1-one]	0.364 ± 0.003	0.042 ± 0.001	0.116 ± 0.001	0.128 ± 0.004	0.031 ± 0.001	0.043 ± 0.001	–	100.8 to 103.7	0.031 to 0.364
COc1cc(C(=O)/C(F)=C/c2ccc3oc4ccccc4c3c2)cc(OC)c1OC [4q, (Z)-3-(dibenzo[b,d]furan-2-yl)-2-fluoro-1–(3,4,5-trimethoxyphenyl)prop-2-en-1-one]	> 5	> 5	> 5	> 5	> 5	> 5	–	114 to 116.4	–
COc1cc(C(=O)/C(F)=C/c2cc3c(cc2Br)OCO3)cc(OC)c1OC [4l, (Z)-3–(6-bromobenzo[d][1,3]dioxol-5-yl)-2-fluoro-1–(3,4,5-trimethoxyphenyl)prop-2-en-1-one]	> 5	> 5	> 5	> 5	> 5	> 5	–	156.3 to 157.8	–
COc1cc(C(=O)/C(F)=C/c2cc3c(cc2[N+](=O)[O-])OCO3)cc(OC)c1OC [4r, (Z)-2-fluoro-3–(6-nitrobenzo[d][1,3]dioxol-5-yl)-1–(3,4,5-trimethoxyphenyl)prop-2-en-1-one]	> 5	> 5	> 5	> 5	> 5	> 5	–	174.7 to 176.6	–
COc1cc(C(=O)/C(F)=C/c2c(C)[nH]c3ccccc23)cc(OC)c1OC [4e, (Z)-2-fluoro-3–(2-methyl-1H-indol-3-yl)-1–(3,4,5-trimethoxyphenyl)prop-2-en-1-one]	> 5	0.101 ± 0.031	1.385 ± 0.001	0.551 ± 0.014	0.123 ± 0.011	0.072 ± 0.002	–	204 to 206.4	–
COc1cc(C(=O)/C(F)=C/c2coc3ccccc23)cc(OC)c1OC [4t, (Z)-3-(benzofuran-3-yl)-2-fluoro-1–(3,4,5-trimethoxyphenyl)prop-2-en-1-one]	1.02 ± 0.064	0.203 ± 0.006	1.063 ± 0.008	1.293 ± 0.007	0.125 ± 0.002	–	–	103.7 to 104.8	–
